Several values for one entry are separate records, joined by “and”; a condition that tells them apart may be missing. Identical values can stand only once. Inconclusive results and toxic doses are left out. No stated cut-off is given here; in the data, active means T/C of 150% or more; inactive means T/C below 125%.
Test system: L1210 leukemia ip in BDF1 mice, survival T/C
Assay: NCI In Vivo Anticancer Drug Screen. Data for tumor model L1210 Leukemia (intraperitoneal) in B6D2F1 (BDF1) mice
Conditions: higher = longer survival
How it was run: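 Ratio derived from survival: compound-dosed mice over vehicle-dosed mice, all bearing a transplantable tumor.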

[1] = endpoint: mean survival time, dose: 100.0 mg/kg/injection, schedule: Q01DX009 (ip), vehicle: saline with Tween-80
[2] = endpoint: mean survival time, dose: 200.0 mg/kg/injection, schedule: Q01DX009 (ip), vehicle: saline with Tween-80
[3] = endpoint: mean survival time, dose: 400.0 mg/kg/injection, schedule: Q01DX009 (ip), vehicle: saline with Tween-80
[4] = endpoint: mean survival time, dose: 100.0 mg/kg/injection, schedule: Q04DX003 (ip), vehicle: saline with Tween-80
[5] = endpoint: mean survival time, dose: 200.0 mg/kg/injection, schedule: Q04DX003 (ip), vehicle: saline with Tween-80
[6] = endpoint: mean survival time, dose: 400.0 mg/kg/injection, schedule: Q04DX003 (ip), vehicle: saline with Tween-80
[7] = endpoint: mean survival time, dose: 100.0 mg/kg/injection, schedule: Q01DX001 (ip), vehicle: carboxymethylcellulose (CMC)
[8] = endpoint: mean survival time, dose: 100.0 mg/kg/injection, schedule: Q04DX003 (ip), vehicle: saline
[9] = endpoint: mean survival time, dose: 200.0 mg/kg/injection, schedule: Q01DX001 (ip), vehicle: carboxymethylcellulose (CMC)
[10] = endpoint: mean survival time, dose: 25.0 mg/kg/injection, schedule: Q01DX009 (ip), vehicle: saline
[11] = endpoint: mean survival time, dose: 25.0 mg/kg/injection, schedule: Q04DX003 (ip), vehicle: saline
[12] = endpoint: mean survival time, dose: 50.0 mg/kg/injection, schedule: Q01DX009 (ip), vehicle: saline
[13] = endpoint: mean survival time, dose: 50.0 mg/kg/injection, schedule: Q04DX003 (ip), vehicle: saline
[14] = endpoint: mean survival time, dose: 100.0 mg/kg/injection, schedule: Q04DX002 (ip), vehicle: saline with Tween-80
[15] = endpoint: mean survival time, dose: 200.0 mg/kg/injection, schedule: Q04DX002 (ip), vehicle: saline with Tween-80
[16] = endpoint: mean survival time, dose: 400.0 mg/kg/injection, schedule: Q04DX002 (ip), vehicle: saline with Tween-80
[17] = endpoint: mean survival time, dose: 400.0 mg/kg/injection, schedule: Q01DX001 (ip), vehicle: carboxymethylcellulose (CMC)

Measured: T/C

CC(=O)C1=CN(c2ccccc2)COC1C (centres undefined)
inactive: endpoint: mean survival time, dose: 50.0 mg/kg/injection, schedule: Q01DX009 (ip), vehicle: Klucel (hydroxypropylcellulose) (HPC) 107 % of control | endpoint: mean survival time, dose: 100.0 mg/kg/injection, schedule: Q01DX009 (ip), vehicle: Klucel (hydroxypropylcellulose) (HPC) 91 % of control | endpoint: mean survival time, dose: 200.0 mg/kg/injection, schedule: Q01DX009 (ip), vehicle: Klucel (hydroxypropylcellulose) (HPC) 100 % of control

CC1(C)CN(C(C)(C)C)CC(C)(C)C(=O)C1=O
inactive: endpoint: mean survival time, dose: 50.0 mg/kg/injection, schedule: Q01DX001 (ip), vehicle: saline sonified 91 % of control | endpoint: mean survival time, dose: 100.0 mg/kg/injection, schedule: Q01DX001 (ip), vehicle: saline sonified 98 % of control | endpoint: mean survival time, dose: 200.0 mg/kg/injection, schedule: Q01DX001 (ip), vehicle: saline sonified 87 % of control

Cc1ccc([N+](=O)[O-])cc1NC(=O)COc1ccc(Cl)cc1
inactive: [1] 91 % of control | [2] 89 % of control | [3] 89 % of control

O=S(=O)(NCCCl)c1ccc(Br)cc1
inactive: endpoint: mean survival time, dose: 100.0 mg/kg/injection, schedule: Q01DX001 (ip), vehicle: other 101 % of control | [4] 95 % of control | endpoint: mean survival time, dose: 200.0 mg/kg/injection, schedule: Q01DX001 (ip), vehicle: other 90 % of control | [5] 103 % of control | endpoint: mean survival time, dose: 400.0 mg/kg/injection, schedule: Q01DX001 (ip), vehicle: other 101 % of control | [6] 97 % of control

CC(=O)OCC1OC(Sc2ncc3cnccn23)C(OC(C)=O)C(OC(C)=O)C1OC(C)=O (centres undefined)
inactive: endpoint: mean survival time, dose: 100.0 mg/kg/injection, schedule: Q01DX005 (ip), vehicle: saline 88 % of control | endpoint: mean survival time, dose: 200.0 mg/kg/injection, schedule: Q01DX005 (ip), vehicle: saline 93 % of control

COc1ccc(CN2CCCN(Cc3ccc(OC)cc3OC)C2c2cc(Cl)ccc2O)c(OC)c1
inactive: endpoint: mean survival time, dose: 50.0 mg/kg/injection, schedule: Q01DX001 (ip), vehicle: saline 95 % of control | endpoint: mean survival time, dose: 100.0 mg/kg/injection, schedule: Q01DX001 (ip), vehicle: saline 86 % of control | endpoint: mean survival time, dose: 200.0 mg/kg/injection, schedule: Q01DX001 (ip), vehicle: saline 95 % of control | endpoint: mean survival time, dose: 400.0 mg/kg/injection, schedule: Q01DX001 (ip), vehicle: saline 86 % of control

O=c1oc(-c2ccccc2)nc2cc(Cl)ccc12
inactive: endpoint: mean survival time, dose: 25.0 mg/kg/injection, schedule: Q04DX003 (ip), vehicle: saline with Tween-80 104 % of control | endpoint: mean survival time, dose: 50.0 mg/kg/injection, schedule: Q04DX003 (ip), vehicle: saline with Tween-80 92 % of control | [1] 90 % of control | [4] 96 % of control and 103 % of control and 88 % of control | [2] 87 % of control | [5] 98 % of control | [3] 92 % of control | [6] 90 % of control

O=S1(=O)OCc2ccccc21
inactive: endpoint: mean survival time, dose: 50.0 mg/kg/injection, schedule: Q01DX009 (ip), vehicle: acetone 106 % of control | [7] 100 % of control | endpoint: mean survival time, dose: 100.0 mg/kg/injection, schedule: Q01DX009 (ip), vehicle: acetone 97 % of control | [8] 100 % of control | [9] 100 % of control | endpoint: mean survival time, dose: 200.0 mg/kg/injection, schedule: Q04DX003 (ip), vehicle: saline 94 % of control

O=C(O)/C(Br)=C/C(=O)c1ccccc1
inactive: endpoint: mean survival time, dose: 75.0 mg/kg/injection, schedule: Q01DX001 (ip), vehicle: steriod suspending solution 106 % of control | endpoint: mean survival time, dose: 300.0 mg/kg/injection, schedule: Q01DX001 (ip), vehicle: steriod suspending solution 109 % of control

CN1CCC=C(CN(c2ccccc2)c2ccccc2)C1
inactive: [10] 93 % of control | [11] 92 % of control | [12] 100 % of control | [13] 96 % of control | endpoint: mean survival time, dose: 100.0 mg/kg/injection, schedule: Q01DX009 (ip), vehicle: saline 91 % of control | [8] 95 % of control

O=C1CC23CCC12CCCC3=O (centres undefined)
inactive: [14] 100 % of control | [15] 93 % of control | [16] 97 % of control

Nc1nc(-c2ccccc2N=NN2CCN(N=Nc3ccccc3-c3nc(N)c4ccccc4n3)CC2)nc2ccccc12
inactive: endpoint: mean survival time, dose: 100.0 mg/kg/injection, schedule: Q04DX003 (ip), vehicle: Klucel (hydroxypropylcellulose) (HPC) 101 % of control | endpoint: mean survival time, dose: 200.0 mg/kg/injection, schedule: Q04DX003 (ip), vehicle: Klucel (hydroxypropylcellulose) (HPC) 96 % of control

COc1ccc(CC(=O)NCCc2ccccc2)cc1
inactive: [7] 96 % of control | [9] 98 % of control | [17] 96 % of control

COc1cc2c3c(c1)C(O)CC[N+]3(C)CCC2 (centres undefined)
inactive: endpoint: mean survival time, dose: 12.5 mg/kg/injection, schedule: Q01DX009 (ip), vehicle: saline 90 % of control | endpoint: mean survival time, dose: 12.5 mg/kg/injection, schedule: Q04DX003 (ip), vehicle: saline 114 % of control | [10] 95 % of control | [11] 98 % of control | [12] 92 % of control | [13] 112 % of control

CN(C)N=Nc1ccc(-c2nnco2)cc1
inactive: [14] 110 % of control | [15] 106 % of control | [16] 119 % of control

C=CCC(CCCCCCCCCCC)C(=O)O (centres undefined)
inactive: endpoint: mean survival time, dose: 100.0 mg/kg/injection, schedule: Q01DX001 (ip), vehicle: saline with Tween-80 111 % of control | endpoint: mean survival time, dose: 200.0 mg/kg/injection, schedule: Q01DX001 (ip), vehicle: saline with Tween-80 97 % of control | endpoint: mean survival time, dose: 400.0 mg/kg/injection, schedule: Q01DX001 (ip), vehicle: saline with Tween-80 90 % of control

Nc1c(Br)cc2c(c1Br)Cc1cc(Cl)ccc1-2
inactive: endpoint: mean survival time, dose: 50.0 mg/kg/injection, schedule: Q01DX001 (ip), vehicle: carboxymethylcellulose (CMC) 93 % of control | [7] 98 % of control | [9] 93 % of control | [17] 93 % of control

CN(C(=O)CCCCl)c1cc([N+](=O)[O-])ccc1OCc1ccccc1
inactive: endpoint: mean survival time, dose: 75.0 mg/kg/injection, schedule: Q01DX001 (ip), vehicle: saline 103 % of control | endpoint: mean survival time, dose: 150.0 mg/kg/injection, schedule: Q01DX001 (ip), vehicle: saline 104 % of control | endpoint: mean survival time, dose: 300.0 mg/kg/injection, schedule: Q01DX001 (ip), vehicle: saline 103 % of control

OCCN1CCN(CCCN2c3ccccc3Sc3cccnc32)CC1
inactive: endpoint: mean survival time, dose: 4.68 mg/kg/injection, schedule: Q01DX009 (ip), vehicle: saline 94 % of control | endpoint: mean survival time, dose: 9.37 mg/kg/injection, schedule: Q01DX009 (ip), vehicle: saline 104 % of control | endpoint: mean survival time, dose: 18.75 mg/kg/injection, schedule: Q01DX009 (ip), vehicle: saline 113 % of control | endpoint: mean survival time, dose: 20.0 mg/kg/injection, schedule: Q01DX009 (ip), vehicle: saline 111 % of control | endpoint: mean survival time, dose: 37.5 mg/kg/injection, schedule: Q01DX009 (ip), vehicle: saline 115 % of control | endpoint: mean survival time, dose: 40.0 mg/kg/injection, schedule: Q01DX009 (ip), vehicle: saline 112 % of control | endpoint: mean survival time, dose: 75.0 mg/kg/injection, schedule: Q01DX009 (ip), vehicle: saline 107 % of control | endpoint: median survival time, dose: 20.0 mg/kg/injection, schedule: Q01DX009 (ip), vehicle: saline 113 % of control | endpoint: median survival time, dose: 40.0 mg/kg/injection, schedule: Q01DX009 (ip), vehicle: saline 112 % of control

— PubChem BioAssay AID248 (DTP/NCI, 2004)
